From PMC11289669, “BAR502/fibrate conjugates: synthesis, biological evaluation and metabolic profile” (Frontiers in Chemistry, 2024)

Biological target: T1, FXR (Homo sapiens, UniProt Q96RI1)
T1 construct: expressed in transfected cells; host or cells: HepG2 (the text says EC50 dose-response curves were run in HEK-293T)
T1 sequence (Q96RI1 1-486): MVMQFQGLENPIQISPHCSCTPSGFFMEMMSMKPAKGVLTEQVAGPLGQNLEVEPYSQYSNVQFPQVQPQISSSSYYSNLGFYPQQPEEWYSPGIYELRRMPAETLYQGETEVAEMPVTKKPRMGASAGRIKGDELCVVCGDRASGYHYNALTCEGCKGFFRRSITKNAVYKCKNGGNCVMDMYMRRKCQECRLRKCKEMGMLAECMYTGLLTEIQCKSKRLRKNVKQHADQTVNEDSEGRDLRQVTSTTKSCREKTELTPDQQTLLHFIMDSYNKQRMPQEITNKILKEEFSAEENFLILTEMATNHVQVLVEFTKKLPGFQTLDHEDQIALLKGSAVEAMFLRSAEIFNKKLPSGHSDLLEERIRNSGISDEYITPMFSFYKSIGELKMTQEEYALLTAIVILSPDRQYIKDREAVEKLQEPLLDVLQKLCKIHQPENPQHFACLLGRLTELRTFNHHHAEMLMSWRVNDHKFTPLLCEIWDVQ
T1 sequence (P19793 1-462 partner): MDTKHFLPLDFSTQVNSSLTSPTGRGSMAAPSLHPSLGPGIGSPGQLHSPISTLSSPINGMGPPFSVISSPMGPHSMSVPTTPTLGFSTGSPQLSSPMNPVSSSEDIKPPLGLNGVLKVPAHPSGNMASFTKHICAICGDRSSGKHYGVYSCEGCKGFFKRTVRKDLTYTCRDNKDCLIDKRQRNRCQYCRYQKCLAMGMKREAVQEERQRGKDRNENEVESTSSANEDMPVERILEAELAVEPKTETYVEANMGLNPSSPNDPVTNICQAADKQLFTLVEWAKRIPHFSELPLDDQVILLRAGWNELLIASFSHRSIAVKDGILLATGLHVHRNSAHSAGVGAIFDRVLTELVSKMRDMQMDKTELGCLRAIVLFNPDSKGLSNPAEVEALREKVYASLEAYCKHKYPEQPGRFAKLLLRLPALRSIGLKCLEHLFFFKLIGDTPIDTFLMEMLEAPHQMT
Test: FXR transactivation (luciferase reporter) assay in HepG2 cells
Format: cell-based
Settings: HepG2 cells
Experimental: HepG2 and HEK-293T cells were cultured at 37 °C in minimal essential medium (MEM) and Dulbecco’s Modified Eagle Medium (DMEM) respectively, supplemented with 10% fetal bovine serum, 1% L-glutamine, 100 U/mL penicillin, and 100 μg/mL streptomycin. To investigate FXR-mediated transactivation, the HepG2 cells were transfected with 200 ng of the reporter vector p (hsp27)TK-Luc containing the FXR response element IR1 cloned from the promoter of heat shock protein 27 (hsp27), plus 100 ng pSG5-FXR, 100 ng pSG5-RXR, and 100 ng pGL4.70 Renilla. To evaluate GPBAR1 mediated transactivation, HEK-293T cells were transfected with 200 ng of human pGL4.29 (Promega), a reporter vector containing a cAMP response element (CRE) that drives the transcription of the luciferase reporter gene luc2P, with 100 ng of pCMVSPORT6-human GPBAR1, and with 100 ng of pGL4.70. At 24 h post-transfection, cells were stimulated 18 h with 10 μM TLCA (taurolithocholic acid a GPBAR1 agonist) or CDCA (FXR agonist) and compounds. To calculate the EC50 on FXR and GPBAR1, dose-response curves were performed in HEK-293T cells transfected as described above and then treated with increasing concentrations of compounds (from 0.1 to 50 µM). After treatments, cells were lysed in 100 μL of lysis buffer (25 mM Tris-phosphate, pH 7.8; 2 mM DTT; 10% glycerol; 1% Triton X-100), and 10 μL of cellular lysate was assayed for luciferase activity using the Firfly &Renilla Luciferase assay kit (Biotium). Luminescence was measured using Glomax 20/20 luminometer (Promega). Luciferase activities were assayed and normalized with Renilla activities.

CC[C@@H]1C2C[C@H](O)CC[C@]2(C)C2CC[C@@]3(C)C(CC[C@@H]3[C@H](C)CCOC(=O)C(C)(C)Oc3ccc(Cl)cc3)C2[C@@H]1O (some centres unmarked) [Compound 1] was tested, and the EC50 was 2.8 ± 0.01 µM.
Work on CC[C@H]1[C@@H](O)[C@@H]2[C@H](CC[C@]3(C)[C@@H]([C@H](C)CCO)CC[C@@H]23)[C@@]2(C)CC[C@@H](O)C[C@@H]12 [BAR502, 6α-ethyl-3α,7α-dihydroxy-24-nor-5β-cholan-23-ol] yielded an EC50 of 2 ± 0.2 µM.
